Assay results reported in PubChem BioAssay AID248 (DTP/NCI, 2004).
Where “and” joins values, the source holds several entries; their conditions need not be identical. Identical values can stand only once. Inconclusive results and toxic doses are left out. No stated cut-off is given here; in the data, active means T/C of 150% or more; inactive means T/C below 125%. Square brackets hold non-standard residues; d marks the D form. Peptide text beside a SMILES is read from it. * marks the point of attachment. ξ: configuration not given here. Tos = Cc1ccc(S(=O)(=O)*)cc1; ξY = NC(Cc1ccc(O)cc1)C(=O)O

System: L1210 leukemia ip in BDF1 mice, survival T/C
Experiment: NCI In Vivo Anticancer Drug Screen. Data for tumor model L1210 Leukemia (intraperitoneal) in B6D2F1 (BDF1) mice
Conditions: endpoint: mean survival time, higher = longer survival
In short: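 Read-out is survival time, reported as the treated-group measurement over the vehicle-control measurement.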

[1] = dose: 25.0 mg/kg/injection, schedule: Q01DX009 (ip), vehicle: Klucel (hydroxypropylcellulose) (HPC)
[2] = dose: 25.0 mg/kg/injection, schedule: Q04DX003 (ip), vehicle: Klucel (hydroxypropylcellulose) (HPC)
[3] = dose: 50.0 mg/kg/injection, schedule: Q01DX009 (ip), vehicle: Klucel (hydroxypropylcellulose) (HPC)
[4] = dose: 50.0 mg/kg/injection, schedule: Q04DX002 (ip), vehicle: saline
[5] = dose: 50.0 mg/kg/injection, schedule: Q04DX003 (ip), vehicle: Klucel (hydroxypropylcellulose) (HPC)
[6] = dose: 100.0 mg/kg/injection, schedule: Q01DX009 (ip), vehicle: Klucel (hydroxypropylcellulose) (HPC)
[7] = dose: 100.0 mg/kg/injection, schedule: Q04DX002 (ip), vehicle: saline
[8] = dose: 100.0 mg/kg/injection, schedule: Q04DX003 (ip), vehicle: Klucel (hydroxypropylcellulose) (HPC)
[9] = dose: 100.0 mg/kg/injection, schedule: Q04DX003 (ip), vehicle: saline
[10] = dose: 100.0 mg/kg/injection, schedule: Q01DX001 (ip), vehicle: Klucel (hydroxypropylcellulose) (HPC)
[11] = dose: 200.0 mg/kg/injection, schedule: Q01DX001 (ip), vehicle: Klucel (hydroxypropylcellulose) (HPC)
[12] = dose: 400.0 mg/kg/injection, schedule: Q01DX001 (ip), vehicle: Klucel (hydroxypropylcellulose) (HPC)
[13] = dose: 100.0 mg/kg/injection, schedule: Q01DX001 (ip), vehicle: saline
[14] = dose: 200.0 mg/kg/injection, schedule: Q01DX001 (ip), vehicle: saline
[15] = dose: 400.0 mg/kg/injection, schedule: Q01DX001 (ip), vehicle: saline
[16] = dose: 200.0 mg/kg/injection, schedule: Q01DX009 (ip), vehicle: Klucel (hydroxypropylcellulose) (HPC)
[17] = dose: 400.0 mg/kg/injection, schedule: Q01DX009 (ip), vehicle: Klucel (hydroxypropylcellulose) (HPC)
[18] = dose: 100.0 mg/kg/injection, schedule: Q04DX003 (ip), vehicle: saline with Tween-80
[19] = dose: 200.0 mg/kg/injection, schedule: Q04DX003 (ip), vehicle: saline with Tween-80
[20] = dose: 400.0 mg/kg/injection, schedule: Q04DX003 (ip), vehicle: saline with Tween-80
[21] = dose: 200.0 mg/kg/injection, schedule: Q04DX003 (ip), vehicle: saline
[22] = dose: 100.0 mg/kg/injection, schedule: Q04DX002 (ip), vehicle: Klucel (hydroxypropylcellulose) (HPC)
[23] = dose: 200.0 mg/kg/injection, schedule: Q04DX002 (ip), vehicle: Klucel (hydroxypropylcellulose) (HPC)
[24] = dose: 400.0 mg/kg/injection, schedule: Q04DX002 (ip), vehicle: Klucel (hydroxypropylcellulose) (HPC)
[25] = dose: 100.0 mg/kg/injection, schedule: Q01DX009 (ip), vehicle: saline with Tween-80
[26] = dose: 200.0 mg/kg/injection, schedule: Q01DX009 (ip), vehicle: saline with Tween-80
[27] = dose: 400.0 mg/kg/injection, schedule: Q01DX009 (ip), vehicle: saline with Tween-80

Measured: T/C

CC(CN(C)C)C(=O)c1ccccc1 (centres undefined)
inactive: [1] 106 % of control | dose: 25.0 mg/kg/injection, schedule: Q01DX009 (ip), vehicle: saline 105 % of control and 104 % of control | dose: 25.0 mg/kg/injection, schedule: Q04DX002 (ip), vehicle: saline 104 % of control | [2] 91 % of control | dose: 25.0 mg/kg/injection, schedule: Q04DX003 (ip), vehicle: saline 98 % of control | [3] 101 % of control | dose: 50.0 mg/kg/injection, schedule: Q01DX009 (ip), vehicle: saline 110 % of control and 100 % of control | [4] 96 % of control | [5] 100 % of control | dose: 50.0 mg/kg/injection, schedule: Q04DX003 (ip), vehicle: saline 88 % of control | [6] 108 % of control | dose: 100.0 mg/kg/injection, schedule: Q01DX009 (ip), vehicle: saline 102 % of control and 96 % of control | [7] 96 % of control | [8] 101 % of control and 102 % of control | [9] 96 % of control and 103 % of control

CC(CNC1CCCCC1)OC(=O)c1ccc([N+](=O)[O-])cc1 (centres undefined)
inactive: dose: 75.0 mg/kg/injection, schedule: Q01DX001 (ip), vehicle: acetone 103 % of control | dose: 150.0 mg/kg/injection, schedule: Q01DX001 (ip), vehicle: acetone 93 % of control | dose: 300.0 mg/kg/injection, schedule: Q01DX001 (ip), vehicle: acetone 97 % of control

CCCCCCCCCCCCCCCCOc1ccc(NC(N)=S)cc1
inactive: dose: 75.0 mg/kg/injection, schedule: Q04DX003 (ip), vehicle: Klucel (hydroxypropylcellulose) (HPC) 101 % of control | [10] 96 % of control | dose: 150.0 mg/kg/injection, schedule: Q04DX003 (ip), vehicle: Klucel (hydroxypropylcellulose) (HPC) 88 % of control | [11] 97 % of control | dose: 300.0 mg/kg/injection, schedule: Q04DX003 (ip), vehicle: Klucel (hydroxypropylcellulose) (HPC) 89 % of control | [12] 93 % of control

CC(=O)N(CC#CCN(C(C)=O)c1ccccc1)c1ccccc1
inactive: dose: 100.0 mg/kg/injection, schedule: Q04DX002 (ip), vehicle: other 111 % of control | dose: 200.0 mg/kg/injection, schedule: Q04DX002 (ip), vehicle: other 105 % of control | dose: 400.0 mg/kg/injection, schedule: Q04DX002 (ip), vehicle: other 97 % of control

CCCCCCCCCCCCc1ccc2c(ccc3ccccc32)c1
inactive: [13] 95 % of control | [14] 98 % of control | [15] 98 % of control

CCCCN(CCCC)c1ccc(/C=C/c2ccncc2)cc1
inactive: [10] 95 % of control | [6] 93 % of control | [11] 101 % of control | [16] 101 % of control | [12] 96 % of control | [17] 90 % of control

O=Cc1sc2cc[nH]c2c1O
inactive: [18] 100 % of control | [19] 97 % of control | [20] 94 % of control

CC1(C)CC(OP(=O)(N2CC2)N2CC2)CC(C)(C)N1O
inactive: dose: 50.0 mg/kg/injection, schedule: Q01DX001 (ip), vehicle: water 102 % of control | dose: 100.0 mg/kg/injection, schedule: Q01DX001 (ip), vehicle: water 98 % of control | dose: 200.0 mg/kg/injection, schedule: Q01DX001 (ip), vehicle: water 102 % of control

CCN(C(=O)CCl)C(C)(C)C(SSSC(c1ccc(Cl)cc1)C(C)(C)N(CC)C(=O)CCl)c1ccc(Cl)cc1 (centres undefined)
inactive: [9] 95 % of control | [21] 91 % of control

COc1c(C)cccc1[N+](=O)[O-]
inactive: [6] 104 % of control | [8] 98 % of control | [16] 101 % of control | dose: 200.0 mg/kg/injection, schedule: Q04DX003 (ip), vehicle: Klucel (hydroxypropylcellulose) (HPC) 104 % of control | [17] 101 % of control | dose: 400.0 mg/kg/injection, schedule: Q04DX003 (ip), vehicle: Klucel (hydroxypropylcellulose) (HPC) 101 % of control

Cc1cc(C)c(NC(=O)Nc2ccccc2F)cc1C
inactive: [1] 98 % of control | [3] 93 % of control | [6] 96 % of control | [22] 102 % of control | [16] 89 % of control | [23] 91 % of control | [24] 115 % of control

COC(=O)C(Cc1ccc(O)cc1)NC(=O)CNS(=O)(=O)c1ccc(C)cc1 (stereo not drawn) (Tos-Gly-[ξY]-OMe)
inactive: dose: 100.0 mg/kg/injection, schedule: Q04DX003 (ip), vehicle: other 105 % of control | dose: 200.0 mg/kg/injection, schedule: Q04DX003 (ip), vehicle: other 94 % of control | dose: 400.0 mg/kg/injection, schedule: Q04DX003 (ip), vehicle: other 104 % of control

O=CNc1ccc(C(=O)O)cc1
inactive: [25] 95 % of control | [26] 100 % of control | [27] 95 % of control

O=C(O)C(F)(F)C(F)(F)C(=O)Nc1cc([N+](=O)[O-])ccc1F
inactive: [13] 93 % of control | [14] 93 % of control | [15] 93 % of control

C=CC(C)C(C)CC (centres undefined)
inactive: dose: 50.0 mg/kg/injection, schedule: Q01DX001 (ip), vehicle: carboxymethylcellulose (CMC) 104 % of control | dose: 100.0 mg/kg/injection, schedule: Q01DX001 (ip), vehicle: carboxymethylcellulose (CMC) 95 % of control | dose: 200.0 mg/kg/injection, schedule: Q01DX001 (ip), vehicle: carboxymethylcellulose (CMC) 93 % of control | dose: 400.0 mg/kg/injection, schedule: Q01DX001 (ip), vehicle: carboxymethylcellulose (CMC) 101 % of control

CC[N+](CC)(CCO)CCCCCCCCCC[N+](CC)(CC)CCO
inactive: dose: 0.15 mg/kg/injection, schedule: Q04DX003 (ip), vehicle: saline 100 % of control | dose: 0.3 mg/kg/injection, schedule: Q04DX003 (ip), vehicle: saline 103 % of control | dose: 0.6 mg/kg/injection, schedule: Q04DX003 (ip), vehicle: saline 105 % of control

Cc1ncc(CO)c(Nc2ccccc2)n1
inactive: [10] 90 % of control | [11] 108 % of control | [12] 96 % of control

O=C(N/C=C/NC(=O)OC(=O)C(Cl)(Cl)Cl)OC(=O)C(Cl)(Cl)Cl
inactive: [9] 92 % of control | [21] 88 % of control | dose: 400.0 mg/kg/injection, schedule: Q04DX003 (ip), vehicle: saline 93 % of control

O=C(C[n+]1ccc2c([N+](=O)[O-])cccc2c1)c1ccccc1
inactive: dose: 12.5 mg/kg/injection, schedule: Q04DX003 (ip), vehicle: Klucel (hydroxypropylcellulose) (HPC) 98 % of control | [2] 105 % of control | [5] 103 % of control | [8] 96 % of control

O=C(O)C1CC(=O)N(Cc2ccccc2)C1 (centres undefined)
inactive: [25] 102 % of control | [18] 100 % of control | [26] 90 % of control | [19] 107 % of control | [27] 98 % of control | [20] 96 % of control

C=CCc1cc(Nc2c3ccc(Cl)cc3nc3ccc(OC)cc23)cc(CN(CC)CC)c1O
inactive: [4] 106 % of control | [7] 98 % of control | dose: 200.0 mg/kg/injection, schedule: Q04DX002 (ip), vehicle: saline 98 % of control

C1=NC(c2ccccc2)=CN(C2CCCCCCC2)C1(c1ccccc1)C1CCCCCCC1 (centres undefined)
inactive: [4] 99 % of control | [22] 95 % of control | [7] 99 % of control | [23] 92 % of control | [24] 92 % of control

NS(=O)(=O)c1ccc(NC(=O)Nc2cccc(C(F)(F)F)c2)cc1
inactive: [6] 97 % of control | [22] 94 % of control | [16] 91 % of control | [23] 91 % of control | [17] 94 % of control | [24] 97 % of control

Oc1ccccc1C=Nc1ccc(Cl)c(Cl)c1
inactive: [6] 93 % of control | [16] 93 % of control | [17] 96 % of control

FC(F)(F)c1cccc(-n2nncc2-c2ccccc2)c1
inactive: [22] 97 % of control | [23] 101 % of control | [24] 97 % of control
